This note sets out measurements from patent US20230212549A1, “COMPOUNDS COMPRISING A […] LIGAND AND USE THEREOF” (priority 2021, published 2023).

In data set [1] the target is T1, Human recombinant FAP (Homo sapiens, UniProt Q12884). Briefly: Surface plasmon resonance (Biacore) assay. The format is binding. On the technique in general: SPR reads the build-up and loss of mass on a sensor chip optically.
The target of data set [2] is T2, FAP-expressing human WI-38 fibroblasts (Homo sapiens, UniProt Q12884).
T2 construct: FAP-expressing human WI-38 fibroblasts (ECACC) were cultured in EMEM; host or cells: WI-38 human fibroblasts
T2 sequence (Q12884 whole entry): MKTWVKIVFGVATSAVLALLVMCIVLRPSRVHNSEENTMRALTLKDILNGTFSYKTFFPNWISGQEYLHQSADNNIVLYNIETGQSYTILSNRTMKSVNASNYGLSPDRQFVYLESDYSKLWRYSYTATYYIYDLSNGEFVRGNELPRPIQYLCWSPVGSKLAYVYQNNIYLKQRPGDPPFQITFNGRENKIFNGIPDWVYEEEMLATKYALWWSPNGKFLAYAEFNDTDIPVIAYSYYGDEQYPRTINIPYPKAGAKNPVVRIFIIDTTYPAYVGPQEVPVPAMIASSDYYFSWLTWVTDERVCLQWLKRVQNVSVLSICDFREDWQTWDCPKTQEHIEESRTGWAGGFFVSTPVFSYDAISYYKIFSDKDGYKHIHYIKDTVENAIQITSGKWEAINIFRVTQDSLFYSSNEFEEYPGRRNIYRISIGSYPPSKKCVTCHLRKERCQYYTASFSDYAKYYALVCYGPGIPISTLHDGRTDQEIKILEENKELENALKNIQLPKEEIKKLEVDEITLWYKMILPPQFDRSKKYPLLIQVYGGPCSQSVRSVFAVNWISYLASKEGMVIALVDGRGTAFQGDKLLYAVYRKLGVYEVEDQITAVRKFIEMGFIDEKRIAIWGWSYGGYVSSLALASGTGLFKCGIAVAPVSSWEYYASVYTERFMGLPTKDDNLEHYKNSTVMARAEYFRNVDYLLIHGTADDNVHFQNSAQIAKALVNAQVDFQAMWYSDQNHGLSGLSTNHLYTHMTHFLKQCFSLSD
Briefly: Competitive FACS binding assay. As to the method: Cells were analyzed in an Attune NxT flow cytometer. […] […].
Cells were analyzed in an Attune NxT flow cytometer. […]
On the technique in general: A flow cytometer gives signals particle by particle.

In data set [3] the target is T1, Human recombinant FAP. In words: FRET-based FAP protease activity assay. The data set is classed as biochemical. Set-up: purchased R&D systems 3715-SE.
The nature of data set [4]: in vivo. The settings on record: female, athymic nude, mouse, iv.
The mark [5] stands for this setting: pIC50 Category (activity), Recombinant human FAP.
[6] abbreviates: pIC50 Category (Activity), FRET-based FAP protease activity assay, recombinant human FAP, 37° C.

Numbered stars: 1 amine (or outer) side, 2 acyl side, 3 side chain; on linkers, the order of the positions; unused ones are H or OH. Bridge positions count the residues as written; N and C are the ends. Square brackets hold non-standard residues; d marks the D form. Peptide text beside a SMILES is read from it. * marks the point of attachment. ξ: configuration not given here. X13 = O=C(O)CN1CCN(CC(=O)O)CCN(CC(=O)N2CCN(Cc3cc(C[*:1])cc(C[*:2])c3)CC2)CCN(CC(=O)O)CC1; X11 = O=C(O)CN1CCN(CC(=O)O)CCN(C(CCC(=O)NCCSCc2cc(C[*:1])cc(C[*:2])c2)C(=O)O)CC1; DOTA = O=C(O)CN1CCN(CC(=O)O)CCN(CC(=O)*)CCN(CC(=O)O)CC1; Pro(trans-4-Ph) = O=C(O)[C@@H]1C[C@@H](c2ccccc2)CN1; Met(O2) = CS(=O)(=O)CC[C@H](N)C(=O)O; mXylylene = c1cc(C[*:1])cc(C[*:2])c1; PEG6 = NCCOCCOCCOCCOCCOCCOCCC(=O)O; NMeF = CN[C@@H](Cc1ccccc1)C(=O)O; X29 = O=C(CN1CCN([*:1])CC1)[*:2]; Nle = CCCC[C@H](N)C(=O)O; X2 = NCCNCC(CNCCN)C(=O)*; Hexanoyl = CCCCCC(=O)*; Aib = CC(C)(N)C(=O)O; CO = O=C([*:1])[*:2]; ξC = NC(CS)C(=O)O; βAla = NCCC(=O)O; NHBu = CCCCN*

T1 sequence (Q12884 whole entry): as the sequence (Q12884 whole entry) above

Turning to `CCCCCC(=O)N[C@H]1CSCc2cc(CSCCNC(=O)CCC(=O)NCCCOCCOCCOCCCNC(=O)CCC(=O)NCCCOCCOCCOCCCNC(=O)CCC(=O)NCCCOCCOCCOCCCNC(=O)CCC(=O)NCCCOCCOCCOCCCNC(=O)c3ccc4c(c3)C(=O)OC43c4ccc(N)c(S(=O)(=O)O)c4Oc4c3ccc(N)c4S(=O)(=O)O)cc(c2)CSC[C@@H](C(=O)O)NC(=O)[C@H](Cc2ccccc2)NC(=O)[C@H](CCC(N)=O)NC(=O)[C@H]([C@@H](C)O)NC(=O)[C@@H]2CCCN2C(=O)[C@@H]2CCCN2C1=O` [3BP-4232, Hex--[C(tMeBn(AF488--Ttds--Ttds--Ttds--Ttds--AET))-PPTQFC]-OH], the Kd in data set [1] is 100 to 794 nM.

Consider `CCCC[C@H](NC(=O)CCC(=O)NCCCOCCOCCOCCCNC(=O)CCC(C(=O)O)N1CCN(CC(=O)O)CCN(CC(=O)O)CC1)C(=O)N[C@H]1CSCc2cccc(c2)CSCC(C(=O)O)NC(=O)[C@H](Cc2ccccc2)NC(=O)[C@H](CCC(N)=O)NC(=O)[C@H]([C@@H](C)O)NC(=O)[C@@H]2CCCN2C(=O)[C@@H]2CCCN2C1=O` (stereo partly drawn) [3BP-4714, NODAGA-Ttds-Nle-[Cys(3MeBn)-Pro-Pro-Thr-Glu-Phe-Cys]-OH], for which the IC50 in data set [2] and in data set [3] (setting [5]) was 10 to 79.4 nM in each case. The tissue uptake at 0.25 h in data set [4] (blood pool surrogate (BPS)) was found to be 1.52 %ID/g; in data set [4] (kidneys) it was 5 %ID/g; in data set [4] (tumor), 5.15 %ID/g. Besides, the tissue uptake at 1 h in data set [4] (blood pool surrogate (BPS)) was determined as 0.65 %ID/g; in data set [4] (kidneys), 3.82 %ID/g; in data set [4] (tumor), 5.44 %ID/g. Also, the tissue uptake at 3 h in data set [4] (blood pool surrogate (BPS)) was 0.32 %ID/g; in data set [4] (kidneys), 3.83 %ID/g; in data set [4] (tumor) it was 5.49 %ID/g.

For the compound `CSCC[C@H](NC(C)=O)C(=O)N[C@H]1CSCc2cccc(c2)CSC[C@@H](C(=O)N[C@@H](CC(=O)O)C(=O)N[C@@H](Cc2c[nH]cn2)C(=O)N[C@@H](Cc2ccccc2)C(=O)N[C@@H](CCCNC(=N)N)C(=O)N[C@@H](CC(=O)O)C(N)=O)NC(=O)[C@H](Cc2ccccc2)NC(=O)[C@H](CCC(=O)O)NC(=O)[C@H]([C@@H](C)O)NC(=O)[C@@H]2CCCN2C(=O)C(C)(C)NC1=O` [3BP-3204, Ac-Met-[Cys(3MeBn)-Aib-Pro-Thr-Glu-Phe-Cys]-Asp-His-Phe-Arg-Asp-NH2] (Ac-MC[Aib]PTEFCDHFRD-NH2; linker 2-8 via mXylylene), the IC50 in data set [2] and in data set [3] (setting [6]) was 10 to 79.4 nM each time.

Consider `C[C@@H](O)[C@@H]1NC(=O)[C@@H]2CCCN2C(=O)[C@@H]2CCCN2C(=O)[C@@H](NC(=O)CCNC(=O)CN2CCN(CC(=O)O)CCN(CC(=O)O)CCN(CC(=O)O)CC2)CSCc2cccc(c2)CSC[C@@H](C(=O)N[C@@H](CC(=O)O)C(=O)N[C@@H](Cc2c[nH]cn2)C(=O)N(C)[C@@H](Cc2ccccc2)C(=O)N[C@@H](CCCNC(=N)N)C(=O)N[C@@H](CC(=O)O)C(N)=O)NC(=O)[C@H](Cc2ccccc2)NC(=O)[C@H](CCC(=O)O)NC1=O` [3BP-3264, DOTA-Bal-[Cys(3MeBn)-Pro-Pro-Thr-Glu-Phe-Cys]-Asp-His-Nmf-Arg-Asp-NH2] ({DOTA-βAla}-CPPTEFCDH[NMeF]RD-NH2; linker 1-7 via mXylylene), for which the concentration for half-maximal inhibition (IC50) in data set [2] and in data set [3] (setting [6]) was 10 to 79.4 nM throughout.

For `C#CCCCC(=O)N[C@H]1CSCc2cc(CSCCNC(=O)CN3CCN(CC(=O)O)CCN(CC(=O)O)CCN(CC(=O)O)CC3)cc(c2)CSC[C@@H](C(=O)O)NC(=O)[C@H](Cc2ccccc2)NC(=O)[C@H](CCC(N)=O)NC(=O)[C@H]([C@@H](C)O)NC(=O)[C@@H]2CCCN2C(=O)[C@@H]2CCCN2C1=O` [3BP-3913, Hyn-[Cys(tMeBn(DOTA-AET))-Pro-Pro-Thr-Gln-Phe-Cys]-OH], the IC50 in data set [2] was in the range of 10 to 79.4 nM; in data set [3] (pIC50 Category (Activity), FRET-peptide substrate, 37° C.), 10 to 79.4 nM.

Turning to `CCCCNC(=O)N[C@H]1CSCc2cc(CSCCNC(=O)CCC(C(=O)O)N3CCN(CC(=O)O)CCN(CC(=O)O)CC3)cc(c2)CSCC(C(=O)O)NC(=O)[C@H](Cc2ccccc2)NC(=O)[C@H](CCC(=O)O)NC(=O)[C@H]([C@@H](C)O)NC(=O)[C@@H]2CCCN2C(=O)[C@@H]2CCCN2C1=O` (stereo partly drawn) [3BP-4724, nBu-CAyl-[Cys(tMeBn(NODAGA-AET))-Pro-Pro-Thr-Glu-Phe-Cys]-OH] ({NHBu-CO}-CPPTEF[ξC]-OH; linker 1-7 via X11), the IC50 in data set [2] was under 10 nM; in data set [3] (setting [5]), 10 to 79.4 nM. Moreover, the tissue uptake at 0.25 h in data set [4] (blood pool surrogate (BPS), uptake BPS 0.25 h, ^68Ga-labeled, BPS (blood pool surrogate), PET/CT, 0.25 h post tracer injection) amounted to 2.17 %ID/g; in data set [4] (kidneys, uptake Kidneys 0.25 h, ^68Ga-labeled, PET/CT, 0.25 h post tracer injection), 4.28 %ID/g; in data set [4] (tumor, uptake Tumor 0.25 h, ^68Ga-labeled, HEK-FAP tumor, PET/CT, 0.25 h post tracer injection) it was 3.87 %ID/g. Besides, the tissue uptake at 1 h stood at 1.04 %ID/g in data set [4] (blood pool surrogate (BPS), uptake BPS 1 h, ^68Ga-labeled, BPS (blood pool surrogate), PET/CT, 1 h post tracer injection); 1.87 %ID/g in data set [4] (kidneys, uptake Kidneys 1 h, ^68Ga-labeled, PET/CT, 1 h post tracer injection); 4.37 %ID/g in data set [4] (tumor, uptake Tumor 1 h, ^68Ga-labeled, HEK-FAP tumor, PET/CT, 1 h post tracer injection). The tissue uptake at 3 h was 0.49 %ID/g in data set [4] (blood pool surrogate (BPS), uptake BPS 3 h, ^68Ga-labeled, BPS (blood pool surrogate), PET/CT, 3 h post tracer injection); 0.86 %ID/g in data set [4] (kidneys, uptake Kidneys 3 h, ^68Ga-labeled, PET/CT, 3 h post tracer injection); 4.46 %ID/g in data set [4] (tumor, uptake Tumor 3 h, ^68Ga-labeled, HEK-FAP tumor, PET/CT, 3 h post tracer injection).

`CCCCCC(=O)N[C@H]1CSCc2cccc(c2)CSC[C@@H](C(N)=O)NC(=O)[C@H](Cc2ccccc2C(F)(F)F)NC(=O)[C@H](CCC(N)=O)NC(=O)[C@H]([C@@H](C)O)NC(=O)[C@@H]2CCCN2C(=O)[C@@H]2CCCN2C1=O` [3BP-3409, Hex-[Cys(3MeBn)-Pro-Pro-Thr-Gln-Otf-Cys]-NH2]: the 50% inhibitory concentration (IC50) is 10 to 79.4 nM in data set [2] and under 10 nM in data set [3] (setting [6]).

With `CCCCCC(=O)N[C@H]1CSCc2cccc(c2)CSC[C@@H](C(N)=O)NC(=O)[C@H](Cc2ccccc2)NC(=O)[C@H](CCS(C)(=O)=O)NC(=O)[C@H]([C@@H](C)O)NC(=O)[C@@H]2CCCN2C(=O)[C@@H]2CCCN2C1=O` [3BP-3356, Hex-[Cys(3MeBn)-Pro-Pro-Thr-Moo-Phe-Cys]-NH2] (Hexanoyl-CPPT[Met(O2)]FC-NH2; linker 1-7 via mXylylene), the IC50 in data set [2] and in data set [3] (setting [6]) was over 1000 nM in each case.

For `CCCC[C@H](NC(=O)CCOCCOCCOCCOCCOCCOCCNC(=O)CN1CCN(C(=O)C(CNCCN)CNCCN)CC1)C(=O)N[C@H]1CSCc2cccc(c2)CSC[C@@H](C(=O)O)NC(=O)[C@H](Cc2ccccc2)NC(=O)[C@H](CCC(=O)O)NC(=O)[C@H]([C@@H](C)O)NC(=O)[C@@H]2CCCN2C(=O)[C@@H]2CCCN2C1=O` [3BP-4781, N4Ac-PPAc-PEG6-Nle-[Cys(3MeBn)-Pro-Pro-Thr-Glu-Phe-Cys]-OH] (X2-[X29][PEG6][Nle]CPPTEFC-OH; linker 4-10 via mXylylene), the IC50 in data set [2] and in data set [3] (setting [5]) was 10 to 79.4 nM each time.

With `CCCCCC(=O)N[C@H]1CSCc2cc(cc(CN3CCN(C(=O)CN4CCN(CC(=O)O)CCN(CC(=O)O)CCN(CC(=O)O)CC4)CC3)c2)CSC[C@@H](C(=O)N[C@@H](CC(=O)O)C(N)=O)NC(=O)[C@H](Cc2ccccc2)NC(=O)[C@H](C)NC(=O)[C@H]([C@@H](C)O)NC(=O)[C@@H]2CCCN2C(=O)[C@@H]2CCCN2C1=O` [3BP-3739, Hex-[Cys(tMeBn(DOTA-PP))-Pro-Pro-Thr-Ala-Phe-Cys]-Asp-NH2] (Hexanoyl-CPPTAFCD-NH2; linker 1-7 via X13), the half-maximal inhibitory concentration (IC50) in data set [2] and in data set [3] (setting [6]) was 100 to 794 nM throughout.

On to `C[C@@H](O)[C@@H]1NC(=O)[C@@H]2CCCN2C(=O)[C@@H]2CCCN2C(=O)[C@@H](NC(=O)Cc2ccncc2)CSCc2cccc(c2)CSC[C@@H](C(N)=O)NC(=O)[C@H](Cc2ccccc2)NC(=O)[C@H](CCC(N)=O)NC1=O` [3BP-3762, 4Pya-[Cys(3MeBn)-Pro-Pro-Thr-Gln-Phe-Cys]-NH2], for which the values for the half-inhibitory concentration (IC50) in data set [2] and in data set [3] (setting [6]) were over 1000 nM and 100 to 794 nM, respectively.

With `CCCCCC(=O)N[C@H]1CSCc2cccc(c2)CSC[C@@H](C(N)=O)NC(=O)[C@H](Cc2ccccc2)NC(=O)[C@H](CCC(=O)O)NC(=O)[C@H]([C@@H](C)O)NC(=O)[C@@H]2C[C@@H](c3ccccc3)CN2C(=O)[C@@H]2CCCN2C1=O` [3BP-3353, Hex-[Cys(3MeBn)-Pro-Eay-Thr-Glu-Phe-Cys]-NH2] (Hexanoyl-CP[Pro(trans-4-Ph)]TEFC-NH2; linker 1-7 via mXylylene), the half-maximal inhibitory concentration (IC50) in data set [2] is over 1000 nM; in data set [3] (setting [6]), 100 to 794 nM.

In the case of `CCCCCC(=O)N[C@H]1CSCc2cc(cc(CN3CCN(C(=O)CN4CCN(CC(=O)O)CCN(CC(=O)O)CCN(CC(=O)O)CC4)CC3)c2)CSC[C@@H](C(=O)N[C@@H](CC(=O)O)C(N)=O)NC(=O)[C@H](Cc2ccccc2)NC(=O)[C@H](CCC(N)=O)NC(=O)[C@H](C)NC(=O)[C@@H]2CCCN2C(=O)[C@@H]2CCCN2C1=O` [3BP-3745, Hex-[Cys(tMeBn(DOTA-PP))-Pro-Pro-Ala-Gln-Phe-Cys]-Asp-NH2] (Hexanoyl-CPPAQFCD-NH2; linker 1-7 via X13), the IC50 in data set [2] and in data set [3] (setting [6]) was 100 to 794 nM in each case.

A word on the Kd: it is the constant that tells how readily two partners part at equilibrium. The IC50 is the concentration that inhibits the measured activity by half. By tissue uptake is commonly meant the percentage of the injected dose found per gram of tissue. Lower therefore signals little accumulation.
